The values that follow come from ChEMBL document CHEMBL1201862, “PubChem BioAssay data set” (2004).

Among the test systems are A549; ACHN; CCRF-CEM; HCT-116; HCT-15; HL-60; HOP-92; KM-20L2; KM12; LOX IMVI; NCI-H460; OVCAR-5; SF-295; SF-539; SK-MEL-2; SW-620; U-251; UO-31.
Common to all, as to assay: growth of human tumour cells (NCI), 48 h

Structures are written as SMILES.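 Compound exposure: 48 hours, 5 concentrations, 96-well plates. Abbreviation: GI50, concentration required for 50% inhibition of growth.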 Activity calls are given as the source filed them. Cut-off read from the data, not from the text of the source: active = GI50 up to about 1.1 µM and inactive = higher. Bounds are passed on as bounds.

With `O=[N+]([O-])c1cc(Cl)ccc1S(=O)(=O)c1ccc(Cl)cc1[N+](=O)[O-]`, the GI50 was 25.4 µM (inactive) with A549; 16.1 µM (inactive) with ACHN; 24.1 µM (inactive) in the assay with CCRF-CEM; 15.7 µM (inactive) in the assay with HCT-116; 17.3 µM in the assay with HCT-15; 19.9 µM (inactive) in the assay with HL-60. For the same molecule, the GI50 is 18.5 µM (inactive) with HOP-92; 16.7 µM (inactive) with KM-20L2; 14.2 µM (inactive) with KM12; 16.1 µM (inactive) in the assay on LOX IMVI; 16.1 µM (inactive) in the assay on NCI-H460; 19.5 µM (inactive) in the assay with OVCAR-5. The GI50 in the assay with SF-295 was 15.1 µM (inactive); with SF-539 it was 18 µM (inactive); in the assay on SK-MEL-2 it was 18 µM (inactive); with SW-620, 18.5 µM (inactive); in the assay with U-251, 19.8 µM (inactive); in the assay on UO-31, 17.1 µM (inactive).
For the molecule `O=C(CCC(=O)Nc1ccc(Cl)c(Cl)c1)CC(=O)c1ccc(F)cc1`, the GI50 in the assay with A549, with ACHN, in the assay on CCRF-CEM, in the assay on HCT-116, in the assay with HL-60 and in the assay on HOP-92 was > 100 µM (inactive) throughout. The GI50 in the assay on KM-20L2, in the assay with KM12, in the assay on LOX IMVI, in the assay with NCI-H460, in the assay with OVCAR-5 and with SF-295 was > 100 µM (inactive) in each case. Also, the GI50 with SF-539, with SW-620, with U-251 and in the assay with UO-31 was > 100 µM (inactive) throughout.
Regarding `Cc1nnc(N/N=C(/C(=O)C(C#N)c2ccc(Cl)cc2)C(C#N)c2ccc(Cl)cc2)n1N` (centres undefined), the GI50 with A549 was 20.1 µM (inactive); with ACHN, 15.9 µM (inactive); in the assay on CCRF-CEM, 35.6 µM (inactive); with HCT-15, 19.7 µM; with HL-60, 22.5 µM (inactive); with HOP-92 it was > 100 µM (inactive). In addition, the GI50 is 20.3 µM (inactive) in the assay on KM-20L2; 18.7 µM (inactive) in the assay with KM12; 18.6 µM (inactive) with LOX IMVI; 18.6 µM (inactive) in the assay on NCI-H460; 18.5 µM (inactive) in the assay with OVCAR-5; 15.7 µM (inactive) in the assay with SF-295. Further, the GI50 in the assay with SK-MEL-2 was 18.2 µM (inactive); with SW-620, 18.8 µM (inactive); in the assay on UO-31, 17.7 µM (inactive).
In the case of `C=C(C)C1CC2C(C)=C(OC(C)=O)C1n1c(=O)c3cc4ccccc4cc3c(=O)n12` (centres undefined), the GI50 is > 72.3 µM (inactive) in the assay with A549; > 82.8 µM (inactive) in the assay with ACHN; > 76.7 µM (inactive) in the assay on HCT-116; 57.5 µM with HCT-15; 1.41 µM (inactive) in the assay on HL-60; 28.6 µM (inactive) in the assay with HOP-92. Besides, the GI50 is > 93.5 µM (inactive) in the assay on KM-20L2; > 82 µM (inactive) with KM12; > 84.3 µM (inactive) in the assay on LOX IMVI; 62.5 µM (inactive) in the assay on NCI-H460; > 100 µM (inactive) in the assay with OVCAR-5; > 71.6 µM (inactive) in the assay with SF-295. Besides, the GI50 in the assay on SF-539 is > 100 µM (inactive); in the assay with SK-MEL-2, > 100 µM (inactive); in the assay with SW-620, > 71.4 µM (inactive); with U-251, 63.1 µM (inactive); with UO-31, > 83 µM (inactive).
As to `Clc1ccc2c(c1)C1C(CO2)C(c2ccccc2)=NN1c1ccccc1` (centres undefined), the GI50 with A549 is 32.7 µM (inactive); in the assay on ACHN it was 35.2 µM (inactive); in the assay with CCRF-CEM, 24.9 µM (inactive); in the assay on HCT-116 it was 16.1 µM (inactive); in the assay on HL-60, 17.3 µM (inactive); in the assay on HOP-92, 18.6 µM (inactive). Moreover, the GI50 in the assay with KM-20L2 is 79.6 µM (inactive); in the assay with KM12 it was 31.6 µM (inactive); in the assay with LOX IMVI it was > 10 µM (inactive); with NCI-H460 it was 36.2 µM (inactive); in the assay on OVCAR-5, > 100 µM (inactive); with SF-295, 35.6 µM (inactive). The GI50 in the assay on SK-MEL-2 is 26.9 µM (inactive); in the assay with SW-620 it was 39.7 µM (inactive); in the assay with U-251 it was 34.8 µM (inactive); with UO-31 it was 15 µM (inactive).
As to `CCCCCCCCCCCCCCCC(=O)OCC1OC(n2cc(F)c(=O)[nH]c2=O)C(NC(=O)OCc2ccccc2)C(O)C1O` (centres undefined), the GI50 in the assay with A549 is 18.9 µM (inactive); in the assay on ACHN, 34.1 µM (inactive); in the assay on CCRF-CEM, 11 µM (inactive); with HCT-116, 16.6 µM (inactive); in the assay on HCT-15 it was 18.5 µM; in the assay on HL-60 it was 20.2 µM (inactive). The GI50 was 15.9 µM (inactive) in the assay with HOP-92; 22.3 µM (inactive) with KM-20L2; 20.8 µM (inactive) in the assay on KM12; 17.1 µM (inactive) in the assay on LOX IMVI; 19.2 µM (inactive) in the assay with NCI-H460; 19.1 µM (inactive) in the assay on OVCAR-5. Moreover, the GI50 was 16.9 µM (inactive) in the assay on SF-295; 16.4 µM (inactive) in the assay on SF-539; 16 µM (inactive) in the assay on SK-MEL-2; 26.9 µM (inactive) in the assay on SW-620; 15.9 µM (inactive) with U-251; 19.5 µM (inactive) in the assay on UO-31.
For the molecule `CC1(C)NC(=O)N(CCCCCCN2C(=O)NC(C)(C)C2=O)C1=O`, the GI50 with A549 is > 100 µM (inactive); in the assay with ACHN, > 100 µM (inactive); with CCRF-CEM it was > 100 µM (inactive); in the assay with HCT-116, > 100 µM (inactive); with HCT-15 it was > 100 µM; in the assay on HOP-92, > 100 µM (inactive). In addition, the GI50 with KM-20L2, with KM12, in the assay on LOX IMVI, with NCI-H460, in the assay with OVCAR-5 and in the assay on SK-MEL-2 was > 100 µM (inactive) in each case. Also, the GI50 in the assay with SW-620, in the assay with U-251 and in the assay with UO-31 was > 100 µM (inactive) each time.
Take `NCCOCCOCC(=O)O`: the GI50 in the assay on A549 is > 100 µM (inactive); in the assay with ACHN, > 100 µM (inactive); in the assay on HCT-116, > 100 µM (inactive); with HCT-15, > 100 µM; with HOP-92, > 100 µM (inactive); in the assay with KM-20L2 it was > 100 µM (inactive). Besides, the GI50 in the assay on KM12, in the assay with OVCAR-5, with SF-295, in the assay with SF-539, with SK-MEL-2 and in the assay with SW-620 was > 100 µM (inactive) each time. In addition, the GI50 in the assay on U-251 and with UO-31 was > 100 µM (inactive) throughout.
For `CCOC(=O)C1(C)CCC(C(=O)OC)C1=O` (centres undefined), the GI50 with A549 is > 100 µM (inactive); in the assay with ACHN it was > 100 µM (inactive); in the assay on CCRF-CEM, 21.9 µM (inactive); with HCT-116 it was 57 µM (inactive); in the assay on HCT-15 it was 20.2 µM; with HL-60, 53.1 µM (inactive). The GI50 in the assay on HOP-92 was > 100 µM (inactive); in the assay with KM-20L2 it was > 100 µM (inactive); in the assay on KM12, > 100 µM (inactive); in the assay with LOX IMVI, 18.1 µM (inactive); in the assay with NCI-H460, 15.3 µM (inactive); in the assay with OVCAR-5 it was > 100 µM (inactive). The GI50 is > 100 µM (inactive) with SF-295; > 100 µM (inactive) with SF-539; > 100 µM (inactive) in the assay with SK-MEL-2; 67.1 µM (inactive) in the assay with U-251; > 100 µM (inactive) with UO-31.
As to `COc1cc(/C=C/C(=N\NC(=O)c2ccccc2)c2sc(Nc3ccc(Cl)c(Cl)c3)nc2C)ccc1O`, the GI50 is 31.7 µM (inactive) in the assay on A549; 26.8 µM (inactive) with ACHN; 27.9 µM (inactive) in the assay with CCRF-CEM; 28.2 µM (inactive) in the assay on HCT-116; 31.9 µM with HCT-15; 16.1 µM (inactive) in the assay on HL-60. The GI50 in the assay on HOP-92 is < 0.01 µM (active); in the assay with KM-20L2, 33.4 µM (inactive); with KM12 it was 30.5 µM (inactive); in the assay with LOX IMVI, 19.7 µM (inactive); with NCI-H460, 31.3 µM (inactive); in the assay with OVCAR-5 it was 25.6 µM (inactive). Also, the GI50 was 33.1 µM (inactive) with SF-295; 40.8 µM (inactive) in the assay on SF-539; 26.2 µM (inactive) in the assay on SK-MEL-2; 40.4 µM (inactive) with SW-620; 31.9 µM (inactive) in the assay on U-251; 28.8 µM (inactive) in the assay with UO-31.
In the case of `C=C1C2C[C@@H]3OC4CC5O[C@]6(CC5OC4C(C)C3OC(=O)CC3CC[C@@H]4OC5C7OC8C[C@](CCC9CC(=C)[C@H](CCC(C[C@H]1C)O2)O9)(OC7C4O3)O[C@@H]85)C[C@@H]1O[C@@]2(CC(C)[C@@H]3OC(CC(=O)CCO)C(O)C[C@@H]3O2)CC(C)[C@@H]1O6` (some centres undefined), the GI50 in the assay on A549 is < 0.001 µM (active); in the assay with ACHN it was < 0.001 µM (active); in the assay with CCRF-CEM, < 0.001 µM (active); with HCT-116, < 0.001 µM (active); in the assay with HCT-15, < 0.001 µM; with HOP-92, < 0.001 µM (active). For the same molecule, the GI50 with KM-20L2, in the assay on KM12, in the assay with LOX IMVI, with NCI-H460, with OVCAR-5 and in the assay with SF-295 was < 0.001 µM (active) throughout. Also, the GI50 in the assay with SF-539, in the assay with SK-MEL-2, with SW-620, in the assay on U-251 and in the assay on UO-31 was < 0.001 µM (active) each time.
As for `O=C(CO)CC(=O)C(=O)Nc1ccccc1`, the GI50 with A549 is > 100 µM (inactive); with ACHN it was > 100 µM (inactive); with CCRF-CEM, > 100 µM (inactive); in the assay with HCT-116 it was > 100 µM (inactive); in the assay with HCT-15, > 100 µM; in the assay on HL-60 it was > 100 µM (inactive). The GI50 in the assay with HOP-92, with KM-20L2, in the assay with KM12, in the assay on LOX IMVI, in the assay with NCI-H460 and in the assay with OVCAR-5 was > 100 µM (inactive) each time. For the same molecule, the GI50 with SF-295, in the assay with SF-539, in the assay with SK-MEL-2, in the assay with SW-620, in the assay with U-251 and with UO-31 was > 100 µM (inactive) throughout.
